Assay results as given in patent publication US10618874B2, “Compounds, cosmetic composition and pharmaceutical composition comprising the same” (INCOSPHARM CORPORATION, priority 2018, dated 2020).

How the values were obtained:
[1] = tested on: keratinocytes (human primary keratinocyte, HEKn); assay: MTT assay in keratinocytes; type: cell-based; conditions: 5, 10 and 50 μM, 4 days, FIG. 4
Procedure: (§1) In order to confirm a treatment concentration of Compound and Compound 2 obtained in the above Examples having no cytotoxicity thereby, an MTT assay was performed.
(§2) As a specific experimental method, in order to confirm cytotoxicity depending on the treatment concentration of Compound 1 and Compound 2, apoptosis analysis was performed in melanin cells (human primary melanocyte, HEMn-DP, cat # C2025C, Gibco) and keratinocytes (human primary keratinocyte, HEKn, cat # C0015C, Gibco). Cells were deposited to the number of 1×10^4 cells/well in a 96 well plate and cultured in an incubator for 24 hours under the condition of 37° C. and 5% CO2.
(§3) Each of Compound 1 and Compound 2 obtained in the above Examples was dissolved in distilled water (DW) at a concentration of 100 mM to form a concentrated solution, which was diluted with a medium, and treatment was performed at concentrations of 5, 10, and 50 μM. After 4 days, the medium of the plate was removed and the plate was treated with 100 μl of an MTT reagent (Sigma, 0.5 mg/ml). After 4 hours, the reagent was removed, dimethyl sulfoxide (DMSO) was added thereto, and absorbance was measured (wavelength: 570 nm, Epoch, BioTek). Here, cell viability was calculated as a percentage to absorbance of a control group (blank) which was not treated with the compound.

[2] = tested on: mushroom tyrosinase; assay: tyrosinase activity inhibition assay; type: biochemical; conditions: 10, 100, 1000 and 10000 ppm; 37° C., 1 hour; FIG. 2
Procedure: As a specific experimental method, mushroom tyrosinase was diluted with a 0.1 M sodium phosphate buffer at 2 unit/ul and dissolved in water at 0.03 wt % of tyrosine. Each experiment group listed in the following Table 1 was also diluted in the 0.1 M sodium phosphate buffer at 10, 100, 1000, and 10000 ppm and mixed as listed in Table 1. Reaction was performed at 37° C. for 1 hour and absorbance was measured, respectively (wavelength: 490 nm, Epoch, BioTek). Based on the results, a tyrosinase inhibition ratio relative to a control group was calculated. [table]

[3] = tested on: melanin cells (human primary melanocyte, HEMn-DP); assay: MTT assay in melanocytes; type: cell-based; conditions: 5, 10 and 50 μM, 4 days, FIG. 3
Procedure: as §1, §2, §3

[4] = tested on: keratinocytes (HEKn) with ATG5 knocked down; assay: melanin pigmentation inhibition and autophagy proteins in ATG5 knocked-down keratinocytes; type: cell-based, human; conditions: 10 μM, FIG. 10; for expression activity of LC3-II and ATG5: western blot
Source text: In order to analyze whether melanin deposition inhibition activity on keratinocytes by treatment with Compound 1 and Compound 2 depends on autophagy activation, ATG5 which is the protein required for autophagy activation was knocked down and treated with melanin to analyze a pigmentation inhibition activity change.
As a specific experimental method, ATG5 siRNA was mixed according to the method of transfection reagent (RNAiMAX, cat #13778-075, Thermo) and deposited in keratinocytes (HEKn, cat # C0015C, Gibco). After 8 hours, Compound 1 and Compound 2 were diluted with Epilife (cat # MEPI500CA, Gibco) without a supplement and an antibiotic to a final concentration of 10 μM for treatment, and cells which were further cultured for 64 hours were dissolved using a cell lysis buffer containing a proteolysis inhibitor. The entire dissolved solution was fractionized using a centrifuge and only the solution containing proteins was extracted. The extracted proteins were quantified by a bicinchoninic acid (BCA) method. 20 μg of proteins were separated by 10% SDS-polyacrylamide gel electrophoresis and transferred to a nitrocellulose film. The film to which the proteins were transferred was blocked by a tris-buffered saline/0.05% Tween-20 (TBS-T) solution containing 5% BSA (bovine serum albumin, Gendepot, Cat # A0100-010) for decreasing a non-specific bonding at room temperature for 1 hour, and then a primary antibody was reacted under the condition of 4° C. overnight and a secondary antibody was reacted at room temperature for 1 hour. For visualization, an enhance chemiluminescence system was used. Then, in order to analyze melanin pigmentation inhibition activity, transfection and treatment with the compounds were performed identically, and then 10 mg/ml of melanin was added by 2 μl at a time and culturing was further performed for 2 hours. The culture medium was removed after completion of culturing, cells were separated from the plate using Trypsin-EDTA (cat # LS-015-09, WELGENE), transferred to a 1.5 ml tube and spun down, a photograph of the pellet was taken, and the absorbance of a solution of the pellet dissolved in 1N NaOH was measured (wavelength: 400 nm, Epoch, BioTek).

[5] = tested on: human-derived melanin cells (HEMn-DP); MITF, Tyrosinase mRNA; assay: melanosome maturation-related genes (qPCR) and melanin content in melanin cells; type: cell-based; conditions: 1 ml of 20 μM added to 1 ml medium, 48 hours, FIGS. 5 to 7
Procedure: In order to analyze how Compound 1 and Compound 2 obtained in the above Examples affect melanosome maturation, an amount of melanosome maturation-related mRNA after treated with Compound 1 and Compound 2 was analyzed with qPCR and a melanin content was measured with absorbance.
As a specific experimental method, human-derived melanin cells (HEMn-DP, cat # C2025C, Gibco) were constantly deposited to the number of 1×10^5 in a 6 well plate for culturing and cultured in an incubator for 24 hours under the condition of 37° C. and 5% CO2 in M254 (cat # M-254-500, Gibco). Each of Compound 1 and Compound 2 was dissolved in DW at a concentration of 100 mM to form a concentration solution, which was diluted in a medium at a concentration of 20 μM, 1 ml of each diluted solution was added to each well containing 1 ml of the medium first for treatment and cultured for 48 hours, and RNeasy mini kit (cat #74106, QIAGEN) was used to extract RNA from melanin cells. […] Then, the experiment was performed identically, the medium was removed after completion of culturing, melanin cells were separated from the plate using Trypsin-EDTA (cat # LS-015-09, WELGENE), transferred to a 1.5 ml tube, and spun down, a photograph of the pellet was taken, and the absorbance of a solution of the pellet dissolved in 1N NaOH was measured (wavelength: 400 nm, Epoch, BioTek).

[6] = tested on: human-derived keratinocytes (HEKn); assay: melanin pigmentation in keratinocytes after melanin treatment; type: cell-based; conditions: 48 hours treatment, then melanin 2 hours; absorbance 400 nm; FIG. 9
Procedure: In order to analyze how Compound 1 and Compound 2 obtained in the above Examples affect melanin pigmentation, a degree of pigmentation inhibition by melanin treatment was analyzed.
As a specific experimental method, human-derived keratinocytes (HEKn, cat # C0015C, Gibco) were constantly deposited to the number of 1×10^5 in a 6 well plate for culturing and cultured in an incubator for 24 hours under the condition of […] and 5% CO2 in EpiLife (cat # MEPI500CA, Gibco). Each of Compound 1 or Compound 2 obtained in the above Examples was dissolved at a concentration of 100 mM to form a concentration solution, which was diluted in a medium at a concentration of 20 μM, 1 ml of each diluted solution was added to each well containing 1 ml of the medium first for treatment and cultured for 48 hours, and 10 mg/ml of melanin was added by 2 μl at a time and culturing was further performed for 2 hours. The medium was removed after completion of culturing, cells were separated from the plate using Trypsin-EDTA (cat # LS-015-09, WELGENE), transferred to a 1.5 ml tube and spun down, a photograph of the pellet was taken, and the absorbance of a solution of the pellet dissolved in 1N NaOH was measured (wavelength: 400 nm, Epoch, BioTek).

[7] = tested on: keratinocytes (HEKn); assay: melanosome degradation: confocal and transmission electron microscopy of keratinocytes given melanosomes; type: cell-based, human; conditions: 10 μM; confocal microscope; FIG. 11
Procedure: In order to confirm whether melanosome and autuphagosome are co-localized by treatment with Compound 1 and Compound 2 obtained in the above Examples, analysis was performed with an electron microscope and a confocal microscope.
As a specific experimental method, Lysis Buffer (Tris 20 mM, NaCl 150 mM, EDTA 1 mM, sucrose 250 mM in DW) was added to melanin cells (HEMn-DP, cat # C2025C, Gibco) containing human-derived melanin at high concentration, freezing and thawing were repeated twice to break a cell membrane, and centrifugation was performed at 1000×g for 5 minutes, thereby obtaining a supernatant. Cushion Buffer (Tris 20 mM, NaCl 150 mM, EDTA 1 mM, sucrose 1.5M in DW) was placed in an ultracentrifuge tube, the same amount of supernatant was added thereto, and then centrifugation was performed under the conditions of 25,000 rpm, […], and 4° C., thereby obtaining melanosomes. The concentration of melanosomes was measured using synthesized melanin (cat # M8631, sigma) as a standard. Keratinocytes (HEKn, cat # C0015C, Gibco) was deposited in a 6 well by 1×10^5 cells/well at a time and cultured for one day. Treatment with 10 μM of Compound 1 and compound 2 each was performed, culturing was performed for one day, separated melanosomes (5 μg/well) was added, and culturing was further performed for 2 days. […]

[8] = tested on: LC3 (light chain 3; autophagy marker) in keratinocytes (HEKn); assay: western blot on LC3 protein in keratinocytes (autophagy activation); type: cell-based, human; conditions: FIG. 8
Procedure: (§4) For intracellular autophagy analysis by treatment with Compound 1 obtained in the above Example, a western blot was performed on a LC3 (light chain 3; autophagy marker) protein. In addition, for analysis of change in endocytosis-related genes by treatment with Compound 2 obtained in the above Example, qPCR was performed on PAR2, AAK1 (AP2 Associated Kinase 1).
As a specific experimental method, keratinocytes (HEKn, cat # C0015C, Gibco) was treated with Compound 1 and dissolved using a cell lysis buffer containing a proteolysis inhibitor. The entire dissolved solution was fractionized using a centrifuge and only the solution containing proteins was extracted. The extracted proteins were quantified by a bicinchoninic acid (BCA) method. 20 μg of proteins were separated by 10% SDS-polyacrylamide gel electrophoresis and transferred to a nitrocellulose film. The film to which the proteins were transferred was blocked by a tris-buffered saline/0.05% Tween-20 (TBS-T) solution containing 5% non-fat milk for decreasing a non-specific bonding at room temperature for 1 hour, and then a primary antibody was reacted under the condition of 4° C. overnight and a secondary antibody was reacted at room temperature for 1 hour. For visualization, an enhanced chemiluminescence system was used.

[9] = tested on: PAR-2 gene in keratinocytes (HEKn); assay: qPCR of endocytosis-related gene PAR2 in keratinocytes; type: cell-based, human; conditions: FIG. 8
Procedure: as §4
As a specific experimental method, from keratinocytes (HEKn, cat # C0015C, Gibco) treated with Compound 2, RNA was extracted using a RNeasy mini kit (cat #74106, QIAGEN), cDNA was synthesized using a cDNA synthesis kit (cat # FSQ-201, TOYOBO), and then a PAR2(F: CTCTCCTGCAGTGGCACCAT; R: GATGTGCCATCAACCTTACCAA) primer and POWER SYBR MASTER MIX (cat #4367659, Thermo) were mixed at a recommended ratio with the synthesized cDNA, and qPCR was performed with QuantStudio 3 equipment (cat # A28131, Thermo).

tyrosinase activity inhibition [2]	SMILES	cytotoxicity (MTT, cell viability) [1]	cytotoxicity (MTT, cell viability) [3]	melanin amount in keratinocytes [4]	expression activity of LC3-II and ATG5 [4]	influence on melanosome maturation activity (tyrosinase and MITF mRNA, melanin content) [5]	melanin pigmentation on keratinocytes [6]	co-localization of increased autophagosomes with melanosomes [7]	production of LC3-II (matured autophagosome) [8]	expression of the PAR-2 gene [9]
did not inhibit tyrosinase activity	CC(=O)N1C[C@H](O)C[C@H]1C(=O)NCCCC[C@H](NC(=O)[C@H](CCCCN(CC(=O)O)CC(=O)O)N(CC(=O)O)CC(=O)O)C(=O)O [Compound 1]	almost no cytotoxicity	almost no cytotoxicity	not decreased	inhibited	almost no influence	effectively inhibited	co-localized with melanosomes	increased	
did not inhibit tyrosinase activity	O=C(O)CN(CCCC[C@@H](C(=O)N1C[C@H](O)C[C@H]1C(=O)O)N(CC(=O)O)CC(=O)O)CC(=O)O [Compound 2]	almost no cytotoxicity	almost no cytotoxicity	not decreased	inhibited	almost no influence	effectively inhibited	co-localized with melanosomes		decreased
